These results are taken from patent publication EP3959993B1, “METHOD FOR SOLVENT FREE PRODUCTION OF AROMA CONCENTRATES” (Symrise AG, priority 2020, dated 2022).

A short description of series [1]: Second oil phase obtained by adding NaCl to the water phase (Example 4). In kind it is physicochemical. The following applies: after separating oil phases I and II. As for the experimental part: Cross linked polystyrene was used as adsorbent material. The volume flux for loading the adsorbent was 300 ml/min.
The adsorbent was heated to 150 °C, the temperature of the applied water steam was 160 °C.
The water steam flux was 10 g/min and was applied for 100 min.
The oil and water phases were separated.
A second oil phase was separated and was collected.

Series [2] can be described thus: Influence of the amount of NaCl on the distribution between oil phase and water phase (Example 5). Format: physicochemical.

Molecules are shown by their SMILES.

Consider `CCCCCCCCO` [octanol], for which the “Loss in the water phase” value in series [1] is reported as 0,0%. For the same molecule, the “Distribution in [%] between oil phase and water phase after condensation: Oil phase” value was determined as 91.3% in series [2] (NaCl 0%); 100% in series [2] (NaCl 27.8 %); 100% in series [2] (NaCl 41.67%); 100% in series [2] (NaCl 55.56 %); 100% in series [2] (NaCl 69.44 %); 100% in series [2] (NaCl 83.33 %). Moreover, the “Distribution in [%] between oil phase and water phase after condensation: Water phase” value in series [2] (NaCl 0%) is on record as 8.7%; in series [2] (NaCl 27.8 %), 0%; in series [2] (NaCl 41.67%) it was 0%; in series [2] (NaCl 55.56 %), 0%; in series [2] (NaCl 69.44 %), 0%; in series [2] (NaCl 83.33 %), 0%.

For the molecule `CCC/C=C/CO` [trans-2-hexenol], the “Loss in the water phase” value in series [1] is recorded as 6,0%. In addition, the “Distribution in [%] between oil phase and water phase after condensation: Oil phase” value in series [2] (NaCl 0%) was found to be 37.9%; in series [2] (NaCl 27.8 %), 73.6%; in series [2] (NaCl 41.67%) it was 82.6%; in series [2] (NaCl 55.56 %), 88.4%; in series [2] (NaCl 69.44 %), 91.7%; in series [2] (NaCl 83.33 %), 94%. For the same molecule, the “Distribution in [%] between oil phase and water phase after condensation: Water phase” value was 62.1% in series [2] (NaCl 0%); 26.4% in series [2] (NaCl 27.8 %); 17.4% in series [2] (NaCl 41.67%); 11.6% in series [2] (NaCl 55.56 %); 8.3% in series [2] (NaCl 69.44 %); 6% in series [2] (NaCl 83.33 %).

For `CC/C=C\CCOC(C)=O` [cis-3-hexenyl acetate], in series [1], the “Loss in the water phase” value is recorded as 0,0%. Further, the “Distribution in [%] between oil phase and water phase after condensation: Oil phase” value in series [2] (NaCl 0%), in series [2] (NaCl 27.8 %), in series [2] (NaCl 41.67%), in series [2] (NaCl 55.56 %), in series [2] (NaCl 69.44 %) and in series [2] (NaCl 83.33 %) was 100% in each case. Besides, the “Distribution in [%] between oil phase and water phase after condensation: Water phase” value in series [2] (NaCl 0%), in series [2] (NaCl 27.8 %), in series [2] (NaCl 41.67%), in series [2] (NaCl 55.56 %), in series [2] (NaCl 69.44 %) and in series [2] (NaCl 83.33 %) was 0% each time.

For the molecule `CC(=O)OCCc1ccccc1` [phenylethyl acetate], in series [1], the “Loss in the water phase” value is on record as 0,0%. Besides, the “Distribution in [%] between oil phase and water phase after condensation: Oil phase” value in series [2] (NaCl 0%) is 70.8%; in series [2] (NaCl 27.8 %), 96.9%; in series [2] (NaCl 41.67%), 98%; in series [2] (NaCl 55.56 %), 100%; in series [2] (NaCl 69.44 %), 100%; in series [2] (NaCl 83.33 %), 100%. Further, the “Distribution in [%] between oil phase and water phase after condensation: Water phase” value in series [2] (NaCl 0%) turned out to be 29.2%; in series [2] (NaCl 27.8 %) it was 3.1%; in series [2] (NaCl 41.67%) it was 2%; in series [2] (NaCl 55.56 %) it was 0%; in series [2] (NaCl 69.44 %), 0%; in series [2] (NaCl 83.33 %), 0%.

Regarding `CCCCCCCO` [heptanol], the “Loss in the water phase” value in series [1] is given as 0,0%. The “Distribution in [%] between oil phase and water phase after condensation: Oil phase” value in series [2] (NaCl 0%) is listed as 76.2%; in series [2] (NaCl 27.8 %) it was 100%; in series [2] (NaCl 41.67%), 100%; in series [2] (NaCl 55.56 %), 100%; in series [2] (NaCl 69.44 %), 100%; in series [2] (NaCl 83.33 %), 100%. Further, the “Distribution in [%] between oil phase and water phase after condensation: Water phase” value in series [2] (NaCl 0%) amounted to 23.8%; in series [2] (NaCl 27.8 %), 0%; in series [2] (NaCl 41.67%), 0%; in series [2] (NaCl 55.56 %) it was 0%; in series [2] (NaCl 69.44 %) it was 0%; in series [2] (NaCl 83.33 %), 0%.

As for `CCCC(=O)OCC` [ethyl butyrate], in series [1], the “Loss in the water phase” value is reported as 1,3%. Moreover, the “Distribution in [%] between oil phase and water phase after condensation: Oil phase” value in series [2] (NaCl 0%) was 49.4%; in series [2] (NaCl 27.8 %), 85.1%; in series [2] (NaCl 41.67%), 92.9%; in series [2] (NaCl 55.56 %) it was 95.4%; in series [2] (NaCl 69.44 %), 97.7%; in series [2] (NaCl 83.33 %), 98.7%. Further, the “Distribution in [%] between oil phase and water phase after condensation: Water phase” value in series [2] (NaCl 0%) came to 50.6%; in series [2] (NaCl 27.8 %), 14.9%; in series [2] (NaCl 41.67%), 7.1%; in series [2] (NaCl 55.56 %), 4.6%; in series [2] (NaCl 69.44 %), 2.3%; in series [2] (NaCl 83.33 %), 1.3%.

For `CCOC(=O)CC` [ethyl propionate], the “Distribution in [%] between oil phase and water phase after condensation: Oil phase” value in series [2] (NaCl 0%), in series [2] (NaCl 27.8 %), in series [2] (NaCl 41.67%), in series [2] (NaCl 55.56 %), in series [2] (NaCl 69.44 %) and in series [2] (NaCl 83.33 %) was 0% each time. Further, the “Distribution in [%] between oil phase and water phase after condensation: Water phase” value in series [2] (NaCl 0%), in series [2] (NaCl 27.8 %), in series [2] (NaCl 41.67%), in series [2] (NaCl 55.56 %), in series [2] (NaCl 69.44 %) and in series [2] (NaCl 83.33 %) was 100% in each case.
